Test results: US20260297085A1, “1 H-PYRROLO[2,3-B]PYRIDIN-4-YL]-2-OXOPYRROLIDINE-3-CARBONITRILE DERIVATIVES AS TYROSINE KINASE 2 (TYK2) INHIBITORS FOR THE TREATMENT OF INFLAMMATORY DISEASES” (BIOGEN MA INC., priority 2023, published 2026)
Where a name gives a salt, the structure may show the parent alone.

Tests used:
[1] = target: T1, human TYK2 kinase domain (JH1) (Homo sapiens, UniProt P29597); test: JH1 biochemical assay for TYK2 (ADP-Glo kinase assay, recombinant JH1 catalytic domain, JAK3-974 peptide, 10 μM ATP)
T1 construct: recombinantly generated catalytic kinase (also known as JH1) domain of human JAK1, JAK2, JAK3 and TYK2
T1 sequence (P29597 897-1176 limits assumed): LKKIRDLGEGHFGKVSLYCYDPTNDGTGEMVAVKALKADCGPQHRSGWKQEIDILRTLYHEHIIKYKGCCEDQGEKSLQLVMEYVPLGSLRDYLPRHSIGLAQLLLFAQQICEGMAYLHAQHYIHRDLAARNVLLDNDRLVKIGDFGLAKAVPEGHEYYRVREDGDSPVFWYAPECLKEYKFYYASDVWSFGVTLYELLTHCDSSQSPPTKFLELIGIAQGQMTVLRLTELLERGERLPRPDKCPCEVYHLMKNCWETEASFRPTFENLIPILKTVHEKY
Protocol: (§1) Compounds of the disclosure were assessed for their ability to inhibit TYK2, JAK1, JAK2, and JAK3 activity. The inhibitory properties of the compounds of the disclosure described herein can be evidenced by testing in any one of the following protocols.
(§2) The kinase activity of recombinantly generated catalytic kinase (also known as JH1) domain of human JAK1, JAK2, JAK3 and TYK2 were evaluated in a plate-based assay using the ADP-Glo™ Kinase Assay platform. Specifically, 4 nM of recombinant JAK1 kinase domain is used to phosphorylate 50 μM of a JAK3-342 (sequence ALVDGYFRLTT) peptide in the presence of 35 μM ATP. Catalytic activities of recombinant JAK2, JAK3 and TYK2 kinase domain (0.2, 0.3 and 2 nM, respectively) are evaluated by the phosphorylation status of the JAK3-974 (50 μM; sequence LPLDKDYYVVR) peptide with the addition of ATP (15, 4 and 10 μM, respectively). The reactions proceed for 100 minutes and the catalytic activity is quantified by first depleting the unused ATP, converting the hydrolyzed ADP into ATP to generate luminescence in a luciferase reaction; which is the basis of the ADP-Glo platform. Compounds are tested at either 10 μM or 1 μM top concentration, 11 points of 3-fold dilution. The data is normalized and the percent activity versus log concentration of compound is fitted with a 4-parameter logistic model to generate a curve and an IC50 value.

[2] = target: T2, human JAK1 kinase domain (JH1) (Homo sapiens, UniProt P23458); test: JH1 biochemical assay for JAK1 (ADP-Glo kinase assay, recombinant JH1 catalytic domain, JAK3-342 peptide, 35 μM ATP)
T2 construct: recombinantly generated catalytic kinase (also known as JH1) domain of human JAK1, JAK2, JAK3 and TYK2
Protocol: as §1, §2

[3] = target: T3, human JAK2 kinase domain (JH1) (Homo sapiens, UniProt O60674); test: JH1 biochemical assay for JAK2 (ADP-Glo kinase assay, recombinant JH1 catalytic domain, JAK3-974 peptide, 15 μM ATP)
T3 construct: recombinantly generated catalytic kinase (also known as JH1) domain of human JAK1, JAK2, JAK3 and TYK2
Protocol: as §1, §2

[4] = target: T4, human JAK3 kinase domain (JH1) (Homo sapiens, UniProt P52333); test: JH1 biochemical assay for JAK3 (ADP-Glo kinase assay, recombinant JH1 catalytic domain, JAK3-974 peptide, 4 μM ATP)
T4 construct: recombinantly generated catalytic kinase (also known as JH1) domain of human JAK1, JAK2, JAK3 and TYK2
Protocol: as §1, §2

T3 sequence (O60674 849-1124 limits assumed): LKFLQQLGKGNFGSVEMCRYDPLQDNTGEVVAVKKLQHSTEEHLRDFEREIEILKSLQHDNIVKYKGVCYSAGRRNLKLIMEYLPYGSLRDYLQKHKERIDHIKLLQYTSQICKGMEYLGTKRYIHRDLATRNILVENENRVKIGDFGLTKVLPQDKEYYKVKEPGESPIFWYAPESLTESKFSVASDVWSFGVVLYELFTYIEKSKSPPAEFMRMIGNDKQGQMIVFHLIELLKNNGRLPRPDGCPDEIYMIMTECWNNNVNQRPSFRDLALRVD
T4 sequence (P52333 822-1111 limits assumed): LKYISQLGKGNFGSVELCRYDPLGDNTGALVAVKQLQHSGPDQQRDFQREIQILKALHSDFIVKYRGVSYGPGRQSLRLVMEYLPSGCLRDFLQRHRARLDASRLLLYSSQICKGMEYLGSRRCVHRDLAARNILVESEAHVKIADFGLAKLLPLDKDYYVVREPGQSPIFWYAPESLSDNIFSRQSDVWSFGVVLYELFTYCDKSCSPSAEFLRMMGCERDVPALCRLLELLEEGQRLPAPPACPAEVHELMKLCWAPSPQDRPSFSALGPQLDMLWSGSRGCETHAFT
T2 sequence (P23458 875-1153 limits assumed): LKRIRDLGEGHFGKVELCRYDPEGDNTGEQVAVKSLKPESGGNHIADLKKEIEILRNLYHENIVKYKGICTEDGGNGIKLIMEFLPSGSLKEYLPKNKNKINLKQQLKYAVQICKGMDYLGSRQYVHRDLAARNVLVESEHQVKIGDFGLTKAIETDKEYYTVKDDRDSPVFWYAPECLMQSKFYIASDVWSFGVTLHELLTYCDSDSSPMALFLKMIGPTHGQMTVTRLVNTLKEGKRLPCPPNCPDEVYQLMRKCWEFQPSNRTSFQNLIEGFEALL

| SMILES | IC50 ([1]; JH1 kinase domain, ADP-Glo) [µM] | IC50 ([2]; JH1 kinase domain, ADP-Glo) [µM] | IC50 ([3]; JH1 kinase domain, ADP-Glo) [µM] | IC50 ([4]; JH1 kinase domain, ADP-Glo) [µM] | IC50 ([1]; TYK2 JH1, ADP-Glo) [µM] | IC50 ([2]; JAK1 JH1, ADP-Glo) [µM] | IC50 ([3]; JAK2 JH1, ADP-Glo) [µM] | IC50 ([4]; JAK3 JH1, ADP-Glo) [µM] |
| --- | --- | --- | --- | --- | --- | --- | --- | --- |
| C[C@@H]1CN(c2ccnn3cc(-c4ncccn4)cc23)C(=O)[C@]1(C#N)C1CC1 [Example 139, ((3R,4S)-3-cyclopropyl-4-methyl-2-oxo-1-(6-(pyrimidin-2-yl)pyrrolo[1,2-b]pyridazin-4-yl)pyrrolidine-3-carbonitrile trifluoroacetate] | > 0.1 | 1 to 5 | > 10 | 1 to 5 | – | – | – | – |
| COc1cc(-c2cc3c(N4C[C@@H](C)[C@@](C#N)(C5CC5)C4=O)ccnn3c2)c(F)cn1 [Example 94, (3R,4S)-3-cyclopropyl-1-(6-(5-fluoro-2-methoxypyridin-4-yl)pyrrolo[1,2-b]pyridazin-4-yl)-4-methyl-2-oxopyrrolidine-3-carbonitrile] | 0.02 to 0.05 | 1 to 5 | > 10 | > 10 | – | – | – | – |
| C[C@@H]1CN(c2ccnn3cc(-c4cnc(N(C)C)nc4)cc23)C(=O)[C@]1(C#N)C1CC1 [Example 91, (3R,4S)-3-cyclopropyl-1-(6-(2-(dimethylamino)pyrimidin-5-yl)pyrrolo[1,2-b]pyridazin-4-yl)-4-methyl-2-oxopyrrolidine-3-carbonitrile] | 0.02 to 0.05 | 0.1 to 1 | 1 to 5 | 1 to 5 | – | – | – | – |
| C[C@@H]1C[C@](C#N)(C2CC2)C(=O)N1c1ccnn2cc(-c3cnn(C)c3)cc12 [Example 16, (3R,5R)-3-cyclopropyl-5-methyl-1-(6-(1-methyl-1H-pyrazol-4-yl)pyrrolo[1,2-b]pyridazin-4-yl)-2-oxopyrrolidine-3-carbonitrile] | > 0.1 | 5 to 10 | 0.1 to 1 | > 10 | – | – | – | – |
| Cn1cc(-c2cc3c(N4CC[C@@H](C5CC5)C4=O)ccnn3c2)cn1 (single isomer, unassigned) [Example 37] | > 0.1 | > 10 | 1 to 5 | 1 to 5 | – | – | – | – |
| C[C@@H]1CN(c2ccnn3cc(-c4cnc5cnccn45)cc23)C(=O)[C@]1(C#N)C1CC1 [Example 116, (3R,4S)-3-cyclopropyl-1-(6-(imidazo[1,2-a]pyrazin-3-yl)pyrrolo[1,2-b]pyridazin-4-yl)-4-methyl-2-oxopyrrolidine-3-carbonitrile trifluoroacetate] | 0.02 to 0.05 | 0.1 to 1 | 1 to 5 | 0.1 to 1 | – | – | – | – |
| COc1cncc(-c2cc3c(N4C[C@@H](C)[C@@](C#N)(C5CC5)C4=O)ccnn3c2)n1 [Example 126, (3R,4S)-3-cyclopropyl-1-(6-(6-methoxypyrazin-2-yl)pyrrolo[1,2-b]pyridazin-4-yl)-4-methyl-2-oxopyrrolidine-3-carbonitrile trifluoroacetate] | 0.02 to 0.05 | 0.1 to 1 | 0.1 to 1 | 0.1 to 1 | – | – | – | – |
| C[C@@H]1CN(c2ccnn3cc(-c4nc5ccccn5n4)cc23)C(=O)[C@]1(C#N)C1CC1 [Example 108, (3R,4S)-1-(6-([1,2,4]triazolo[1,5-a]pyridin-2-yl)pyrrolo[1,2-b]pyridazin-4-yl)-3-cyclopropyl-4-methyl-2-oxopyrrolidine-3-carbonitrile trifluoroacetate] | 0.05 to 0.1 | 1 to 5 | > 10 | 1 to 5 | – | – | – | – |
| CC[C@H]1CN(c2ccnn3cc(-c4cnn(C)c4)cc23)C(=O)[C@]1(C#N)C1CC1 [Example 24, (3R,4R)-3-cyclopropyl-4-ethyl-1-(6-(1-methyl-1H-pyrazol-4-yl)pyrrolo[1,2-b]pyridazin-4-yl)-2-oxopyrrolidine-3-carbonitrile] | > 0.1 | 5 to 10 | 5 to 10 | > 10 | – | – | – | – |
| CC[C@@]1(C#N)CCN(c2ccnn3cc(-c4cnn(C)c4)cc23)C1=O (single isomer, unassigned) [Example 43] | > 0.1 | > 10 | > 10 | > 10 | – | – | – | – |
| Cn1cc(-c2cc3c(N4CC[C@@](C#N)(C5COC5)C4=O)ccnn3c2)cn1 (single isomer, unassigned) [Example 45] | > 0.1 | > 10 | > 10 | > 10 | – | – | – | – |
| Cn1cc(-c2cc3c(N4CC[C@](C#N)(C5CC5)C4=O)ccnc3[nH]2)cn1 [Example 2, (R)-3-cyclopropyl-1-(2-(1-methyl-1H-pyrazol-4-yl)-1H-pyrrolo[2,3-b]pyridin-4-yl)-2-oxopyrrolidine-3-carbonitrile] | 0.05 to 0.1 | 0.1 to 1 | 0.1 to 1 | 1 to 5 | – | – | – | – |

Further lines, results first:

| IC50 ([1]; JH1 kinase domain, ADP-Glo) [µM] | IC50 ([2]; JH1 kinase domain, ADP-Glo) [µM] | IC50 ([3]; JH1 kinase domain, ADP-Glo) [µM] | IC50 ([4]; JH1 kinase domain, ADP-Glo) [µM] | IC50 ([1]; TYK2 JH1, ADP-Glo) [µM] | IC50 ([2]; JAK1 JH1, ADP-Glo) [µM] | IC50 ([3]; JAK2 JH1, ADP-Glo) [µM] | IC50 ([4]; JAK3 JH1, ADP-Glo) [µM] | SMILES |
| --- | --- | --- | --- | --- | --- | --- | --- | --- |
| – | – | – | – | 0.05 to 0.1 | 1 to 5 | 1 to 5 | 1 to 5 | C[C@@H]1CN(c2nc(-c3cncnc3)cn3nccc23)C(=O)[C@]1(C#N)C1CC1 [Example 265, (3R,4S)-3-cyclopropyl-4-methyl-2-oxo-1-(6-(pyrimidin-5-yl)pyrazolo[1,5-a]pyrazin-4-yl)pyrrolidine-3-carbonitrile trifluoroacetate] |
| 0.02 to 0.05 | 0.1 to 1 | 0.1 to 1 | 0.1 to 1 | – | – | – | – | C[C@@H]1CN(c2ccnn3cc(-c4cc(CO)ccn4)cc23)C(=O)[C@]1(C#N)C1CC1 [Example 148, (3R,4S)-3-cyclopropyl-1-(6-(4-(hydroxymethyl)pyridin-2-yl)pyrrolo[1,2-b]pyridazin-4-yl)-4-methyl-2-oxopyrrolidine-3-carbonitrile trifluoroacetate] |
| – | – | – | – | 0.05 to 0.1 | 0.1 to 1 | 1 to 5 | 1 to 5 | C[C@@H]1CN(c2nc(-c3cncc(C(F)(F)F)c3)cn3nccc23)C(=O)[C@]1(C#N)C1CC1 [Example 260, (3R,4S)-3-cyclopropyl-4-methyl-2-oxo-1-(6-(5-(trifluoromethyl)pyridin-3-yl)pyrazolo[1,5-a]pyrazin-4-yl)pyrrolidine-3-carbonitrile trifluoroacetate] |
| 0.005 to 0.02 | 0.1 to 1 | 0.1 to 1 | 0.1 to 1 | – | – | – | – | Cc1nc(-c2cc3c(N4C[C@@H](C)[C@@](C#N)(C5CC5)C4=O)ccnn3c2)ccc1F [Example 147, (3R,4S)-3-cyclopropyl-1-(6-(5-fluoro-6-methylpyridin-2-yl)pyrrolo[1,2-b]pyridazin-4-yl)-4-methyl-2-oxopyrrolidine-3-carbonitrile trifluoroacetate] |
| – | – | – | – | > 0.1 | > 10 | > 10 | > 10 | C[C@@H]1CN(c2ccc3ncc(-c4cnn(C)c4)cn23)C(=O)[C@]1(C#N)C1CC1 [Example 283, (3R,4S)-3-cyclopropyl-4-methyl-1-(3-(1-methyl-1H-pyrazol-4-yl)pyrrolo[1,2-a]pyrimidin-6-yl)-2-oxopyrrolidine-3-carbonitrile] |
| – | – | – | – | > 0.1 | 5 to 10 | > 10 | 5 to 10 | C[C@@H]1CN(c2ccnc3cc(-c4cnn(C)c4)nn23)C(=O)[C@]1(C#N)C1CC1 [Example 273, (3R,4S)-3-cyclopropyl-4-methyl-1-(2-(1-methyl-1H-pyrazol-4-yl)pyrazolo[1,5-a]pyrimidin-7-yl)-2-oxopyrrolidine-3-carbonitrile] |
| 0.02 to 0.05 | 1 to 5 | 5 to 10 | 1 to 5 | – | – | – | – | C[C@@H]1CN(c2ccnn3cc(-c4ncccc4O)cc23)C(=O)[C@]1(C#N)C1CC1 [Example 149, (3R,4S)-3-cyclopropyl-1-(6-(3-hydroxypyridin-2-yl)pyrrolo[1,2-b]pyridazin-4-yl)-4-methyl-2-oxopyrrolidine-3-carbonitrile trifluoroacetate] |
